Patent US10426755B2, “Methods for inhibiting cancer cells” (Chang Gung Memorial Hospital, Chiayi, priority 2015, dated 2019)
Entries after “also recorded” stand apart in the source; their conditions may differ.

Key:
Type in all cases: cell-based
[1] = test system: prostate cancer cells (hormone therapy-resistant PC3, DU145 and LNCaP); assay: Annexin V/PI flow cytometry apoptosis/necrosis, prostate cancer cells; conditions: 10 or 20 μM DT, 24-48 hours, vs PBS and DMSO vehicle (CT); time dependent; FIG. 6
Experimental: The effect of DT on metastatic prostate cancer cells (hormone therapy-resistant PC3, DU145 and LNCaP); lung cancer cells (A549 and chemotherapy-resistant/metastatic H460); and breast cancer cells (MCF-7, tamoxifen-resistant MCF7 and MDA MB-231) was assessed.
1×10^6 Cancer cells were seeded in a 100-mm plate and cultured overnight. The cancer cells were treated with phosphate buffered saline (PBS), a Dimethyl sulfoxide (DMSO) vehicle (CT), 10 or 20 μM of DT for 24-48 hours, then collected and washed with cold PBS. The supernatant was removed by centrifugation and resuspended in FITC Annexin V binding buffer and Propidium iodide (PI) (Annexin V-FITC Apoptosis Detection Kit, commercially available from Strong Biotech Corporation, Taiwan). The suspended cancer cells were stained at room temperature, in the dark for 15 min and analyzed by the BD FACSCanto™ flow cytometry (Becton Dickinson, USA). The amount of early apoptosis, late apoptosis, and necrosis was measured as the percentage of annexin-V positive/PI negative (Q4 in the FACS images), annexin-V positive/PI positive (Q2 in the FACS images), and annexin-V negative/PI positive cells (Q1 in the FACS images), respectively. Normal cells are in […] of the FACS images.

[2] = test system: skp2 and downstream genes in HCT116 colon cancer cells; assay: skp2 and downstream gene mRNA expression, colon cancer cells; conditions: various concentrations of DT vs DMSO, FIG. 10 (g), (i)
Experimental: It has been reported that skp2 plays an important role in the metastasis of cancer cells. An in vitro evaluation of the effect of DT on prostate cancer cell metastasis was performed, by measuring the mRNA expression of skp2 in the following prostate cancer cell lines: meatstatic DU145 cells (Panels i-j of FIG. 9), hormone therapy resistant and metastatic PC3 cells (Panel h of FIG. 9), and 22RV1 cells (Panels k-l of FIG. 9), A549 lung cancer cells (Panels (c)-(e) of FIG. 10), chemotherapy-resistant/metastatic H460 lung cancer cells (Panels (d) and (f) of FIG. 10), HCT116 colon cancer cells (Panels (g) and (i) of FIG. 10) and MCF7-tamoxifen resistant breast cancer cells (Panels (h) and (j) of FIG. 10) […].
The cancer cells were treated with DMSO and various concentrations of DT.

[3] = test system: CCL2 in RAW 264.7 cells/DU145 co-culture; assay: CCL2 ELISA, RAW 264.7/DU145 co-culture; conditions: DT-treated macrophage/DU145 co-culture medium; 5 or 10 μM DT, 24 hours; FIG. 15 (c)
Experimental: As illustrated in Example 10, the production of CCL2 was inhibited by DT in both prostate cancer cells and macrophage, the effect of DT on monocyte/cancer cell co-culture and macrophage/cancer cell co-culture was examined using the invasion assay described in Example 9. • (a) THP1 monocytes, Raw264.7 macrophage, monocyte/prostate cancer co-culture and macrophage/prostate cancer co-culture were treated with a vehicle (DMSO), 5 or 10 μM DT for 24 hours, the cultured medium was collected and placed into the lower chamber of a transwell plate. • (b) Prostate cancer cells (PC3, DU145 and 22RV1) were placed in the cell invasion assay). The level of CCL2 in the invasion assay was measured by ELIZA method.

[4] = test system: γ-H2AX and phosphorylated-ATM in A549 and chemotherapy-resistant/metastatic H460 lung cancer cells; assay: Western blot of DNA damage response proteins, lung cancer cells; conditions: various concentrations of DT, vs control vehicle; dose dependent; FIG. 10 (a)-(b)
Experimental: An in vitro evaluation on the damage effect of DT on cancer cells was performed, using prostate cancer cells (metastatic LNCaP and metastatic DU145, hormone therapy resistant and metastatic PC3 and 22RV1) and lung cancer cells (A549 and chemotherapy-resistant/metastatic H460).
Cancer cells were treated with a control vehicle, dihydrotestosterone (DHT), and various concentrations of DT between 6 to 24 hours. Cellular extracts of treated cancer cells were analyzed using Western Blot.

[5] = test system: breast cancer cell lines (MDA-MB-231, MCF-7 and tamoxifen-resistant MCF-7); assay: XTT proliferation assay, breast cancer cells; conditions: 0, 5, 10 and 20 μM DT, 1-3 days, FIG. 3
Experimental: The prostate cancer cells were plated at a density of 10^3 or 3×10^3 per well, in a 96-well plate, in a medium containing 10% Fetal bovine serum (FBS) (Gibco®, commercially available from Life Technologies, USA). Once the prostate cancer cells were attached to the culture dish, the 10% FBS medium was replaced with a second 10% FBS medium and each of the prostate cancer cell line was treated with 1, 5, and 10 μM of DT respectively for 1-2 days. The absorbance was measured using XTT assay kit (commercially available from Roche, Switzerland) at 492 nm using an ELISA reader (Bio-Rad Laboratories, USA).
An in vitro evaluation of the effect of DT on the breast cancer cells was performed. The breast cancer cell lines, MDA-MB-231, MCF-7 and tamoxifen-resistant MCF-7 breast cancer cells were obtained from Bioresource Collection and Research Center, Taiwan. The breast cancer cells were cultured in Eagle's Minimum Essential Medium containing 10% charcoal-stripped fetal bovine serum and plated according to the steps in Example 1 and each of the breast cancer cell line was treated with 0 (control), 5, 10 and 20 μM of DT, respectively for 1-3 days. The absorbance was measured using XTT assay kit at 492 nm using an ELISA reader.

[6] = test system: CCL2 in metastatic DU145 prostate cancer cells; assay: CCL2 ELISA of culture medium, DU145; conditions: 5 or 10 μM DT, 24 hours, vs DMSO, FIG. 14 (c)
Experimental: (§1) It has been reported that increased CCL2 expression enhances cancer cell metastasis via macrophage recruitment. The effect of DT on CCL2 expression in RAW264.7 macrophages, THP1 monocytes and prostate cancer cells (metastatic DU145 and hormone therapy resistant and metastatic PC3) was examined by treating the cells with DMSO (control), 5 or 10 μM DT for 24 hours.
(§2) The culture medium was collected and the concentration of CCL2 was measured using ELISA assay.

[7] = test system: CCL2 in RAW264.7 macrophages; assay: CCL2 ELISA of culture medium, RAW264.7 macrophages; conditions: 5 or 10 μM DT, 24 hours, vs DMSO, FIG. 14 (a)
Experimental: as §1, §2

SMILES: Cc1cccc2c3c(ccc12)C(=O)C1=C(OCC1C)C3=O (stereo not shown) [DT, dihydroisotanshinone I]
- early apoptosis, late apoptosis and necrosis, prostate cancer cells [1]: more early apoptosis, late apoptosis and necrosis; also recorded: induced prostate cancer cell apoptosis/necrosis
- mRNA expression of skp2 and its downstream genes, colorectal cancer [2]: effectively inhibit mRNA expression of skp2 and its downstream genes; also recorded: reduces skps and its downstream genes, MMP2, MMP9 and E-cadherin
- concentration of CCL2 [3]: significantly reduced
- DNA damage response proteins (γ-H2AX and phosphorylated-ATM), lung cancer cells [4]: increase in DNA damage response proteins (γ-H2AX and phosphorylated-ATM); also recorded: increased the DNA damage response proteins (γ-H2AX, phosphorylated-ATM)
- inhibition of breast cancer cells (proliferation) [5]: effective in inhibiting breast cancer cells, even for the tamoxifen-resistant MCF-7 breast cancer cells, in a dose dependent and time dependent fashion
- production of CCL2 in metastatic DU145 prostate cancer cells [6]: effectively inhibit the production of CCL2
- production of CCL2 in macrophages [7]: effectively inhibit the production of CCL2
